According to US20240083910A1, “AMIDO-SUBSTITUTED PYRIDYL COMPOUNDS AND METHODS OF USE THEREOF FOR THE TREATMENT OF HERPESVIRUSES” (Merck Sharp & Dohme LLC, priority 2020, published 2024):

Key:
[1] = target: T1, Human cytomegalovirus DNA polymerase (Human cytomegalovirus, UniProt P08546); test: CMV polymerase assay (AlphaLISA); assay type: biochemical; settings: HCMV polymerase 0.2 nM; 30 min pre-incubation; 60 min at 37° C.; read-out: CMV (IC50)
T1 construct: made in house; host or cells: SF21 insect cells (baculovirus vector)
T1 sequence (P08546 whole entry): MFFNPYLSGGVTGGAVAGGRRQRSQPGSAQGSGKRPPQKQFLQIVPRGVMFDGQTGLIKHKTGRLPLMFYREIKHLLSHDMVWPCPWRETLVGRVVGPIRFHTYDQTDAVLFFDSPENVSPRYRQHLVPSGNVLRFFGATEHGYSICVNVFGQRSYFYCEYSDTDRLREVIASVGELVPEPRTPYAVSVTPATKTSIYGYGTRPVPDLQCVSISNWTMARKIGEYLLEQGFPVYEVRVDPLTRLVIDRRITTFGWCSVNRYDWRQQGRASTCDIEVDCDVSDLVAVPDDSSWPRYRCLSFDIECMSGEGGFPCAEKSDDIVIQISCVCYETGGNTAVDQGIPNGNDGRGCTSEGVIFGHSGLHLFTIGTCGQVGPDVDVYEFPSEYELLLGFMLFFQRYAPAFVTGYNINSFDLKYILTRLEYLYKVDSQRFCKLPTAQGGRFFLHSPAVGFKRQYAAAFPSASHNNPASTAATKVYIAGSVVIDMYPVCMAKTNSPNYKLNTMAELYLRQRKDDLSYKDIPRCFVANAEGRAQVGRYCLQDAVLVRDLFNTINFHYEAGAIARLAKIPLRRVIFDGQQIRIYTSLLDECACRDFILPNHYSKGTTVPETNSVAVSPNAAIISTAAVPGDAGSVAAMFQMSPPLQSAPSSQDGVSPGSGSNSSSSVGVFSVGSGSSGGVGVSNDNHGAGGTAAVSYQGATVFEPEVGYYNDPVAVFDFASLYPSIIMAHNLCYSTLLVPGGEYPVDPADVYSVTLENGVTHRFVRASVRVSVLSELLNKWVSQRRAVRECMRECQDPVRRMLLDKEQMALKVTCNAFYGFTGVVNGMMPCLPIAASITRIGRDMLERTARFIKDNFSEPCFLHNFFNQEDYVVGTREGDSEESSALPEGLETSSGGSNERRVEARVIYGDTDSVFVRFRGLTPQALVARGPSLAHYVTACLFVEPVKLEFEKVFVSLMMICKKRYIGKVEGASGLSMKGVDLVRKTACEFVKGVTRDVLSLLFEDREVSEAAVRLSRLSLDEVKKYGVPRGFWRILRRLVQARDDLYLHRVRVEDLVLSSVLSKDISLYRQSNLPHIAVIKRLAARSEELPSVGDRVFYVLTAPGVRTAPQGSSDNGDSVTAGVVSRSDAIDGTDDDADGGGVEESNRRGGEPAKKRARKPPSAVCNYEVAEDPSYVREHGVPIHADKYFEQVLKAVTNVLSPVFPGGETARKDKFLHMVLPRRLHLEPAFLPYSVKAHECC
In short: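 Baculovirus-expressed polymerase (HCMV 0.2 nM, VZV 0.4 nM) preincubated 30 min with compound, then reacted 60 min at 37 °C with 1.6 nM DIG-primer/59-mer template and low-nM dNTPs including 0.8 nM biotin-dUTP. Incorporation detected by AlphaLISA; IC50 from a 4-parameter fit normalized to DMSO and pre-quenched controls.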

[2] = target: T2, varicella zoster virus DNA polymerase (Varicella-zoster virus, UniProt P09252); test: VZV polymerase assay (AlphaLISA); assay type: biochemical; settings: VZV polymerase 0.4 nM; 30 min pre-incubation; 60 min at 37° C.
T2 construct: made in house; host or cells: SF21 insect cells (baculovirus vector)
T2 sequence (P09252 whole entry): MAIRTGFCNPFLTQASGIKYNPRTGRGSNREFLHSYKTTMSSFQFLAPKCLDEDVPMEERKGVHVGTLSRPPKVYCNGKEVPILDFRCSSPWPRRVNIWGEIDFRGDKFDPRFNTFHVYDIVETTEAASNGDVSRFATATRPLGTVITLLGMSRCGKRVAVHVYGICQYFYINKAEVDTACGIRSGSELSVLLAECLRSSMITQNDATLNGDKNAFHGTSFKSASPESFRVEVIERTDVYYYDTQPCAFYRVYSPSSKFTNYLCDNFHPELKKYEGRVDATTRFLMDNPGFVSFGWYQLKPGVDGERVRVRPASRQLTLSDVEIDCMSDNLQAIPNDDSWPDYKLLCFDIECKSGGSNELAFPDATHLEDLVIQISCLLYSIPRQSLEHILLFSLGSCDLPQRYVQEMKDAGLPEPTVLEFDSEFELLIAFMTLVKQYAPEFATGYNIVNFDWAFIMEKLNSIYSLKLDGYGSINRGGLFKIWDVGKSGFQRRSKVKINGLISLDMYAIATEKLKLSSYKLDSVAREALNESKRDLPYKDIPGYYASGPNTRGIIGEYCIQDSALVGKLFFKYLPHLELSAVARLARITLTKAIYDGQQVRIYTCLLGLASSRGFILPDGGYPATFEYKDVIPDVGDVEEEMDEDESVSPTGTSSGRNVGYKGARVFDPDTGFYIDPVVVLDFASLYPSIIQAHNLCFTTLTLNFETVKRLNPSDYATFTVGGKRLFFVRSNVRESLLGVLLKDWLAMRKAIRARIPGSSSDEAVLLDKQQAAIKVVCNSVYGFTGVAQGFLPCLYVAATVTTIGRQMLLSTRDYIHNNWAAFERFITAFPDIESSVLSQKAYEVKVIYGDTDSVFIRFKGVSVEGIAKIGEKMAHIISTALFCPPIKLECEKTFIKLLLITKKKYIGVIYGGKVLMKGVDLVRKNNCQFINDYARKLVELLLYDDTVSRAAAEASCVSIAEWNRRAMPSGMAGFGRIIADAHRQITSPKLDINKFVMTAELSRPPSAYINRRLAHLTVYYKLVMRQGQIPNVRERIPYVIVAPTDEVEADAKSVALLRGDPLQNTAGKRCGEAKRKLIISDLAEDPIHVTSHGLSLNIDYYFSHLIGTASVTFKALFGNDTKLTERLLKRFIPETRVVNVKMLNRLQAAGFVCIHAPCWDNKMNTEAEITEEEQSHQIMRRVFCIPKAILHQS
Description: Human cytomegalovirus and varicella zoster virus DNA polymerases were expressed via baculovirus vector in SF21 cells and purified. Heterodimeric nucleic acid substrate used in the herpesvirus polymerase reactions was generated by annealing a 59-mer template to a 17-mer digoxigenin-labeled primer. Polymerase (HCMV final concentration of 0.2 nM; VZV final concentration of 0.4 nM) was combined with an inhibitor compound or DMSO in assay buffer (10 mM HEPES, pH 7.5, 25 mM KCl, 25 mM NaCl, 5 mM MgCl2, 5% glycerol, 0.67 mg/ml bovine serum albumin, and 1 mM tris(2-carboxyethyl)phosphine), and this mixture was pre-incubated for 30 minutes at room temperature in 384-well microtiter plates. The polymerization reaction was initiated by the addition of template/primer substrate (final concentration: 1.6 nM), and dNTPs (final concentration: 24 nM dCTP, 24 nMdGTP, 16 nM dATP, 16 nM dTTP, and 0.8 nM biotin-dUTP). After 60 min incubation at 37° C., reactions were terminated with quench buffer (25 mM HEPES pH 7.5, 100 mM NaCl, 0.25% Tween-20, 12 mM EDTA, and 1 mg/ml bovine serum albumin). Incorporation of biotinylated UTP was detected with 2.5-5 ug/ml anti-DIG AlphaLISA acceptor beads and 5-10 ug/ml streptavidin AlphaLISA donor beads (PerkinElmer). Compound effects were normalized to the window defined by the controls (DMSO only and pre-quenched wells) and were fit using a 4-parameter algorithm to report an IC50.

HCMV Strain AD169 = test: Viral qPCR assay, HCMV; assay type: cell-based, Human cytomegalovirus; settings: Human betaherpesvirus 5, AD169, MRC5, 72 h, MRC-5 cells, 0.05-0.1 pfu/cell, growth media or 50% fetal bovine serum, viral genome copies by qPCR, read-out: CMV Cell (EC50)
In short: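 HCMV AD169 at 0.05-0.1 pfu/cell infected MRC-5 cells, added to 10-point 3-fold compound dilutions, in growth medium or medium with 50% FBS; ~72 h at 37°C. Viral genome copies by TaqMan qPCR against plasmid standard curve, normalized to DMSO and uninfected controls; EC50 from 4-parameter fit.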

VZV = test: Viral qPCR assay, VZV; assay type: cell-based, varicella zoster virus; settings: Human alphaherpesvirus 3, 72 h, MeWo or MRC5 cells, 0.04-0.1 pfu/cell, growth medium, viral genome copies by qPCR
In short: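 VZV strain Street at 0.04-0.1 pfu/cell infected MeWo or MRC5 cells added to 10-point, 3-fold compound dilutions; ~72 h at 37° C. Viral genome copies by TaqMan qPCR against plasmid standard curve, sometimes normalised to PPIA, scaled between uninfected and DMSO-infected controls; EC50 from 4-parameter fit.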

HSV-1 Strain F = test: Viral qPCR assay, HSV-1; assay type: cell-based, Herpes Simplex Virus type 1; settings: Human alphaherpesvirus 1, 72 h, Vero or MRC5 cells, 0.0005-0.004 pfu/cell, growth medium, viral genome copies by qPCR, read-out: HSV1 Cell (EC50)
In short: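 HSV-1 strain F at 0.0005–0.004 pfu/cell infected Vero or MRC5 cells, which were added to a 10-point 3-fold compound dilution and cultured ~72 h at 37 °C. Viral genomes in the lysates were quantified by TaqMan qPCR against a plasmid standard curve, in some runs normalized to cellular PPIA. EC50 came from a 4-parameter fit of % effect.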

IC50 [1] | IC50 [2] | Structure (SMILES) | EC50 (HCMV Strain AD169) | EC50 (VZV) | EC50 (HSV-1 Strain F)
0.00295 µM | 0.000259 µM | COc1nc(-c2cnn(C(F)F)c2)c(O[C@H]2CCN3C(=O)OC[C@@H]3C2)cc1C(=O)NCc1ccc(C#N)c(F)c1 [Compound 58] | 0.0593 µM | 0.103 µM | 0.0634 µM
0.00208 µM | 0.00648 µM | COc1nc(-c2cnn(C(F)F)c2)c(O[C@H]2CCN3C(=O)OC[C@@H]3C2)cc1C(=O)NCc1ccc(C#N)cc1 [Compound 56] | 0.102 µM | 0.123 µM | 0.0363 µM
0.00132 µM | 0.000223 µM | COc1nc(-c2cc(C)ns2)c(O[C@H]2CCN3C(=O)OC[C@@H]3C2)cc1C(=O)NCc1ccc(Cl)cc1 [Compound 7] | 0.0826 µM | 0.129 µM | 0.0726 µM
